The target in one assay is T1, TLR 7 (Mus musculus, UniProt P58681).
T1 construct: endogenous in cells; host or cells: RAW264.7 (ATCC)
T1 sequence (P58681 27-1050): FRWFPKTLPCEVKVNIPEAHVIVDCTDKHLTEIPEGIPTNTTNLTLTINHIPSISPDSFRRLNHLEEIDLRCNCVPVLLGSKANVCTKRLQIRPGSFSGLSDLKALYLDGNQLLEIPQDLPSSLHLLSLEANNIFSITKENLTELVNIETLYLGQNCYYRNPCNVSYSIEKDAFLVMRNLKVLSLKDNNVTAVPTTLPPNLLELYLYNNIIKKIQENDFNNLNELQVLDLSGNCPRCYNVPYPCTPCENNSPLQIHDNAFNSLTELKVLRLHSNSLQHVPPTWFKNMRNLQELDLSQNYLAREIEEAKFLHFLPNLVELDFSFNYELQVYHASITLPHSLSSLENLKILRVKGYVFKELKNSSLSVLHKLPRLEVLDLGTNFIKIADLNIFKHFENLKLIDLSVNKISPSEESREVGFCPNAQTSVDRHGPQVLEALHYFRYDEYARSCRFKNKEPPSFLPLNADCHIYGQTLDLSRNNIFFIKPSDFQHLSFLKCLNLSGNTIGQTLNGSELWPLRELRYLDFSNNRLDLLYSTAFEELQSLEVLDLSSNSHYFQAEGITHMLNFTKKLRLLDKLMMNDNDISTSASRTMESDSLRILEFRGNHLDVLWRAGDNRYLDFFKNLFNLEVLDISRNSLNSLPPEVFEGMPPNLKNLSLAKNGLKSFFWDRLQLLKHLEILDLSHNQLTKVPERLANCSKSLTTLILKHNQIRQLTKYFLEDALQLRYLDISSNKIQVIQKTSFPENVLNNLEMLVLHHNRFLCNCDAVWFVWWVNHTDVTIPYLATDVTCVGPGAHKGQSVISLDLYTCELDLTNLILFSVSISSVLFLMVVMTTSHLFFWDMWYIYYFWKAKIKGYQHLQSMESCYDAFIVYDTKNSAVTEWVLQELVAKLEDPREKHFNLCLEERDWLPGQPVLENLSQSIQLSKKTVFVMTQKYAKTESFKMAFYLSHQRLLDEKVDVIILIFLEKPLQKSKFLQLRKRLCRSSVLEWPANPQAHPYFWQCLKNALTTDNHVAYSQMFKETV
In words: polyU-induced TNFα secretion by RAW264.7 cells (TLR 7 antagonism). The settings on record: for antagonism of TLR 7 activation (TNFα release): 20 μg/mL polyU, 20 μg/mL phospholipid, 4 hours; for TLR7 antagonist activity: reduction in cytokine secretion vs activating TLR ligand alone. Type of assay: cell-based. The protocol:
The mouse macrophage cell line, RAW264.7, was obtained from ATCC and maintained in DMEM, supplemented with 10% bovine growth serum and 1× penicillin streptomycin. Cells were maintained at 37° C. with 5% carbon dioxide: 95% air atmosphere within the incubator. Experiments were completed in a 96-well plate where cells were seated at a density of 1×10^5 cells per well, 24 prior to stimulation with TLR agonists and antagonists. Lipids were dried under a stream of nitrogen, hydrated with phosphate-buffered saline (PBS) at 37° C. for one hour, followed by water bath sonication to create liposomes. Each condition for cell stimulation and antagonism was prepared in DMEM in a separate tube and consisted of: control, TLR agonist, TLR agonist+lipid, and lipid alone. 100 μL aliquots of medium+agonists+antagonists were added to each well and incubated at 37° C. for 4 hours. Subsequently, the media were collected, diluted and an enzyme-linked immunosorbent assay (ELISA) was performed to quantify TNFα release by cells.
TLR 7 is an intracellular receptor of the endosomal compartment. TLR 7 was the first innate immune receptor reported druggable with small molecules, however no breakthrough treatments have been discovered with TLR 7 agonists/antagonists yet (T. Y.-H. Wu, “Strategies for Designing Synthetic Immune Agonists,” Immunology, 2016). TLR 7 detects single-stranded RNA (ssRNA) within endosomal compartments. Xylitol lipids were assessed for antagonism of TLR 7 activation in the presence of the synthetic ssRNA analog, polyuridylic acid (polyU). The macrophage cell line, RAW264.7, was used to assess antagonist activity of PX analogs in a TLR 7-dependent manner. Cells were stimulated with 20 μg/mL polyU for 4 hours in the absence or presence of 20 μg/mL phospholipid. After a 4-hour stimulation media were collected and TNFα secretion was quantified by ELISA. […] Saturated, ester-linked phospholipids appear to be ineffective at antagonizing TLR 7 activation where as their unsaturated ester-linked and saturated ether-linked counterparts were effective.

In the next assay the target is T2, TLR 4 (Mus musculus, UniProt Q9JHF9+Q9QUK6).
T2 construct: LPS was added to RAW264.7 cells at 10 ng/mL in the absence or presence of 50 μg/mL of lipid; endogenous in cells; host or cells: RAW264.7 (ATCC)
T2 sequence (Q9QUK6 26-835): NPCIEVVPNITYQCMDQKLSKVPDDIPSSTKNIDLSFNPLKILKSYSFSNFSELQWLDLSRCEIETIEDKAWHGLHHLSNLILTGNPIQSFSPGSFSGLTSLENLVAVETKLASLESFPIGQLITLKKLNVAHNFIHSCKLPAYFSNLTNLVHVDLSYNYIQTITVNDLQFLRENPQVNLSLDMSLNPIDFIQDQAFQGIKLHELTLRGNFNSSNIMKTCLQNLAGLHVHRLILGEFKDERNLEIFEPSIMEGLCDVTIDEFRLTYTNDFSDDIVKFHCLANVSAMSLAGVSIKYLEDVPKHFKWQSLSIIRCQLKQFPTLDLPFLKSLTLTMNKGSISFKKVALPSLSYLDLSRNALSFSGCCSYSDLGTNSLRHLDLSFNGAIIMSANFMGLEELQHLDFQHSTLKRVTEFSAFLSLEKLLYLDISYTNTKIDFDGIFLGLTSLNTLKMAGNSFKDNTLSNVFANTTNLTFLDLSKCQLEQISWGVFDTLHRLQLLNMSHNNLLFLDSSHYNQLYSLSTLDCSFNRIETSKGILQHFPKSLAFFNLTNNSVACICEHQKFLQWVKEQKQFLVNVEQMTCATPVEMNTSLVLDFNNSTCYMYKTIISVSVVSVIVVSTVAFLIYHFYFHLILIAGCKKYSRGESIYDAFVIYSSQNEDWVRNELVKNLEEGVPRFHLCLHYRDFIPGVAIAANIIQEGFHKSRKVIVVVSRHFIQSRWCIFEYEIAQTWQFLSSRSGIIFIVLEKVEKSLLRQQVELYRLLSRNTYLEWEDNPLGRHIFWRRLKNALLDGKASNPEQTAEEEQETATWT
T2 sequence (Q9JHF9 19-160): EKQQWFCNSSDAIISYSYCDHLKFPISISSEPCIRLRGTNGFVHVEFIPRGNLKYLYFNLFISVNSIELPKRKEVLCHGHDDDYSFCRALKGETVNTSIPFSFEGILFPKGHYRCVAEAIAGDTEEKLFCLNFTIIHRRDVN
In words: LPS-induced TNF-α secretion by RAW264.7 cells (TLR 4 antagonism). Type of assay: cell-based. Conditions: reduction in cytokine secretion vs activating TLR ligand alone.

Each structure is given as a SMILES string. Entries after “also recorded” stand apart in the source; their conditions may differ.

Turning to `CCCCCCCCCCCCCCOC[C@H](COP(=O)(O)OCC(O)C(O)C(O)CO)OCCCCCCCCCCCCCC` (mixture of isomers) [14:0 DEPX, sn-1-O-myristyl, sn-2-O-myristyl sn-3 glycerol phosphoxylitol], at TLR 7, the “antagonism of TLR 7 activation (TNFα release)” value (“antagonism of TLR 7 activation” for short) was “markedly inhibited” and the TLR7 antagonist activity result is “+ (cutoff being greater than a 50% reduction in cytokine secretion compared to activating TLR ligand alone)”. The TLR2 antagonist activity result at TLR 4 was “+ (cutoff being greater than a 50% reduction in cytokine secretion compared to activating TLR ligand alone)”.

Turning to `CCCCCCCC/C=C\CCCCCCCC(=O)O[C@H](COC(=O)CCCCCCCCCCCCCCC)COP(=O)([O-])OCC[N+](C)(C)C` [POPC, 1-palmitoyl-2-oleoyl-sn-glycero-3-phosphocholine, reference compound], the “antagonism of TLR 7 activation” value at TLR 7 is listed as “not affected”.

On to `CCCCCCCC/C=C\CCCCCCCC(=O)O[C@H](COC(=O)CCCCCCCCCCCCCCC)COP(=O)(O)OCC(O)CO` (some centres unmarked) [POPG, palmitoyl-oleoyl-phosphatidylglycerol, reference compound], for which the “antagonism of TLR 7 activation” value at TLR 7 was “markedly inhibited”.

Consider `CCCCCCCCC=CCCCCCCCC(=O)OCC(COP(=O)(O)OCC(O)C(O)C(O)CO)OC(=O)CCCCCCCC=CCCCCCCCC` (mixture of isomers) [DOPX, sn-1-oleoyl, sn-2-oleoyl sn-3 glycerol phosphoxylitol], for which, on TLR 7, the “antagonism of TLR 7 activation” value is on record as “markedly inhibited; also recorded: inhibit” and the TLR7 antagonist activity entry is recorded as “+ (cutoff being greater than a 50% reduction in cytokine secretion compared to activating TLR ligand alone)”. Moreover, the TLR2 antagonist activity result at TLR 4 is “+ (cutoff being greater than a 50% reduction in cytokine secretion compared to activating TLR ligand alone)”.

On to `CCCCCCCC/C=C\CCCCCCCC(=O)O[C@H](COC(=O)CCCCCCCCCCCCCCC)COP(=O)(O)OCC(O)C(O)C(O)CO` (some centres unmarked) [POPX, sn-1-palmitoyl, sn-2-oleoyly sn-3 glycerol phosphoxylitol], for which the TLR7 antagonist activity entry at TLR 7 was “+ (cutoff being greater than a 50% reduction in cytokine secretion compared to activating TLR ligand alone)”. For the same compound, on TLR 4, the TLR2 antagonist activity entry is reported as “+ (cutoff being greater than a 50% reduction in cytokine secretion compared to activating TLR ligand alone)”.

As for `CCCCCCCCCCCCCC(=O)OC[C@H](COP(=O)(O)OCC(O)C(O)C(O)CO)OC(=O)CCCCCCCCCCCCC` (mixture of isomers) [DMPX, sn-1-myristoyl, sn-2-myristoyl sn-3 glycerol phosphoxylitol], on TLR 4, the TLR2 antagonist activity result is on record as “+ (cutoff being greater than a 50% reduction in cytokine secretion compared to activating TLR ligand alone)”.

On to `CCCCCCCCC=CCCCCCCCCOCC(COP(=O)(O)OCC(O)C(O)C(O)CO)OCCCCCCCCC=CCCCCCCCC` (mixture of isomers) [18:1 DEPX, sn-1-O-octadecenyl, sn-2-O-octadecenyl sn-3 glycerol phosphoxylitol], for which, at TLR 7, the “antagonism of TLR 7 activation” value was “markedly inhibited; also recorded: inhibit” and the TLR7 antagonist activity entry is reported as “+ (cutoff being greater than a 50% reduction in cytokine secretion compared to activating TLR ligand alone)”. Further, the TLR2 antagonist activity entry at TLR 4 is recorded as “+ (cutoff being greater than a 50% reduction in cytokine secretion compared to activating TLR ligand alone)”.

Turning to `CCCCCCC=CCCCCCCCC(=O)OCC(COP(=O)(O)OCC(O)C(O)C(O)CO)OC(=O)CCCCCCCC=CCCCCCC` (mixture of isomers) [16:1 DPPX, sn-1-palmitoleoyl, sn-2-palmitoleoyl sn-3 glycerol phosphoxylitol], on TLR 7, the “antagonism of TLR 7 activation” value is recorded as “markedly inhibited” and the TLR7 antagonist activity entry is given as “+ (cutoff being greater than a 50% reduction in cytokine secretion compared to activating TLR ligand alone)”. In addition, on TLR 4, the TLR2 antagonist activity entry was “+ (cutoff being greater than a 50% reduction in cytokine secretion compared to activating TLR ligand alone)”.

On to `CCCCCC=CCC=CCCCCCCCC(=O)OCC(COP(=O)(O)OCC(O)C(O)C(O)CO)OC(=O)CCCCCCCC=CCC=CCCCCC` (mixture of isomers) [18:2 DLPX, sn-1-linoleoyl, sn-2-linoleoyl sn-3 glycerol phosphoxylitol], for which, on TLR 7, the “antagonism of TLR 7 activation” value was “markedly inhibited” and the TLR7 antagonist activity entry is on record as “+ (cutoff being greater than a 50% reduction in cytokine secretion compared to activating TLR ligand alone)”. For the same compound, the TLR2 antagonist activity entry at TLR 4 is “+ (cutoff being greater than a 50% reduction in cytokine secretion compared to activating TLR ligand alone)”.

For the origin of these results see patent publication US12472193B2, “Methods and compositions for treating and preventing respiratory related diseases and conditions with xylitol-headgroup lipid analogs” (National Jewish Health, priority 2017, dated 2025).
